The NIST ThermoML archive (doi:10.1021/je060271a)
“And” between values parts separate entries of the source, which are not always exact repeats. Equal entries are not always repeated. Numbers after ± are expanded uncertainties.

Settings: Liquid, Vibrating tube method

CCCCCCCC(=O)OCC(COC(=O)CCCCCCC)(COC(=O)CCCCCCC)COC(=O)CCCCCCC [pentaerythritol tetraoctanoate]
mass density (303.15 K, 32860 kPa): 974.3 ± 1.2 kg/m3 | mass density (303.15 K, 32891 kPa): 974.3 ± 1.2 kg/m3 | mass density (303.15 K, 32922 kPa): 974.2 ± 1.2 kg/m3 | mass density (303.15 K, 32960 kPa): 974.3 ± 1.2 kg/m3 | mass density (303.15 K, 32992 kPa): 974.4 ± 1.2 kg/m3 | mass density (303.15 K, 33022 kPa): 974.3 ± 1.2 kg/m3 | mass density (303.15 K, 33060 kPa): 974.4 ± 1.2 kg/m3 | mass density (303.15 K, 33092 kPa): 974.4 ± 1.2 kg/m3 | mass density (303.15 K, 33129 kPa): 974.4 ± 1.2 kg/m3 | mass density (303.15 K, 33161 kPa): 974.4 ± 1.2 kg/m3 | mass density (303.15 K, 33192 kPa): 974.4 ± 1.2 kg/m3 | mass density (303.15 K, 33231 kPa): 974.5 ± 1.2 kg/m3 | mass density (303.15 K, 33263 kPa): 974.4 ± 1.2 kg/m3 | mass density (303.15 K, 33295 kPa): 974.5 ± 1.2 kg/m3 | mass density (303.15 K, 33327 kPa): 974.5 ± 1.2 kg/m3 | mass density (303.15 K, 33366 kPa): 974.6 ± 1.2 kg/m3 | mass density (303.15 K, 33398 kPa): 974.6 ± 1.2 kg/m3 | mass density (303.15 K, 33437 kPa): 974.6 ± 1.2 kg/m3 | mass density (303.15 K, 33469 kPa): 974.5 ± 1.2 kg/m3 | mass density (303.15 K, 33502 kPa): 974.6 ± 1.2 kg/m3 | mass density (303.15 K, 33541 kPa): 974.8 ± 1.2 kg/m3 | mass density (303.15 K, 33574 kPa): 974.6 ± 1.2 kg/m3 | mass density (303.15 K, 33607 kPa): 974.6 ± 1.2 kg/m3 | mass density (303.15 K, 33647 kPa): 974.7 ± 1.2 kg/m3 | mass density (303.15 K, 33682 kPa): 974.8 ± 1.2 kg/m3 | mass density (303.15 K, 33716 kPa): 974.7 ± 1.2 kg/m3 | mass density (303.15 K, 33760 kPa): 974.6 ± 1.2 kg/m3 | mass density (303.15 K, 33796 kPa): 974.8 ± 1.2 kg/m3 | mass density (303.15 K, 33832 kPa): 974.9 ± 1.2 kg/m3 | mass density (303.15 K, 33864 kPa): 974.9 ± 1.2 kg/m3 | mass density (303.15 K, 33892 kPa): 974.7 ± 1.2 kg/m3 | mass density (303.15 K, 33915 kPa): 974.9 ± 1.2 kg/m3 | mass density (303.15 K, 33938 kPa): 974.8 ± 1.2 kg/m3 | mass density (303.15 K, 33965 kPa): 975 ± 1.2 kg/m3 | mass density (303.15 K, 33988 kPa): 974.9 ± 1.2 kg/m3 | mass density (303.15 K, 34016 kPa): 974.8 ± 1.2 kg/m3 | mass density (303.15 K, 34039 kPa): 974.9 ± 1.2 kg/m3 | mass density (303.15 K, 34062 kPa): 975 ± 1.2 kg/m3 | mass density (303.15 K, 34092 kPa): 974.9 ± 1.2 kg/m3 | mass density (303.15 K, 34116 kPa): 975 ± 1.2 kg/m3 | mass density (303.15 K, 34141 kPa): 974.9 ± 1.2 kg/m3 | mass density (303.15 K, 34166 kPa): 975 ± 1.2 kg/m3 | mass density (303.15 K, 34196 kPa): 974.9 ± 1.2 kg/m3 | mass density (303.15 K, 34222 kPa): 975 ± 1.2 kg/m3 | mass density (303.15 K, 34255 kPa): 975.2 ± 1.2 kg/m3 | mass density (303.15 K, 34284 kPa): 975.1 ± 1.2 kg/m3 | mass density (303.15 K, 34313 kPa): 975 ± 1.2 kg/m3 | mass density (303.15 K, 34325 kPa): 975 ± 1.2 kg/m3 | mass density (303.15 K, 34326 kPa): 975.1 ± 1.2 kg/m3 | mass density (303.15 K, 34328 kPa): 975.1 ± 1.2 kg/m3 | mass density (303.15 K, 34329 kPa): 975.2 ± 1.2 kg/m3 | mass density (303.15 K, 34330 kPa): 975.2 ± 1.2 kg/m3 | mass density (303.15 K, 34332 kPa): 975.2 ± 1.2 kg/m3 | mass density (303.15 K, 34333 kPa): 975.1 ± 1.2 kg/m3 and 975.2 ± 1.2 kg/m3 | mass density (303.15 K, 34335 kPa): 975.1 ± 1.2 kg/m3 | mass density (303.15 K, 34336 kPa): 975 ± 1.2 kg/m3 | mass density (303.15 K, 34337 kPa): 975 ± 1.2 kg/m3 | mass density (303.15 K, 34339 kPa): 975 ± 1.2 kg/m3 | mass density (303.15 K, 34340 kPa): 975 ± 1.2 kg/m3 and 975.1 ± 1.2 kg/m3 | mass density (303.15 K, 34342 kPa): 975 ± 1.2 kg/m3 | mass density (303.15 K, 34343 kPa): 975 ± 1.2 kg/m3 | mass density (303.15 K, 34349 kPa): 975.1 ± 1.2 kg/m3 | mass density (303.15 K, 34350 kPa): 975 ± 1.2 kg/m3 | mass density (303.15 K, 34361 kPa): 975.2 ± 1.2 kg/m3 | mass density (303.15 K, 34371 kPa): 975.2 ± 1.2 kg/m3 | mass density (303.15 K, 34374 kPa): 975 ± 1.2 kg/m3 | mass density (303.15 K, 34375 kPa): 975.2 ± 1.2 kg/m3 | mass density (303.15 K, 34377 kPa): 975.2 ± 1.2 kg/m3 | mass density (303.16 K, 3295.7 kPa): 957.4 ± 1.2 kg/m3 | mass density (303.16 K, 3309.7 kPa): 957.5 ± 1.2 kg/m3 | mass density (303.16 K, 3323.8 kPa): 957.4 ± 1.2 kg/m3 | mass density (303.16 K, 3335.4 kPa): 957.5 ± 1.2 kg/m3 | mass density (303.16 K, 3349.9 kPa): 957.5 ± 1.2 kg/m3 | mass density (303.16 K, 3364.5 kPa): 957.5 ± 1.2 kg/m3 | mass density (303.16 K, 3376.5 kPa): 957.4 ± 1.2 kg/m3 | mass density (303.16 K, 3390.8 kPa): 957.6 ± 1.2 kg/m3 | mass density (303.16 K, 3405.4 kPa): 957.4 ± 1.2 kg/m3 | mass density (303.16 K, 3418 kPa): 957.6 ± 1.2 kg/m3 | mass density (303.16 K, 3432.9 kPa): 957.5 ± 1.2 kg/m3 | mass density (303.16 K, 3447.8 kPa): 957.5 ± 1.2 kg/m3 | mass density (303.16 K, 3460.5 kPa): 957.5 ± 1.2 kg/m3 | mass density (303.16 K, 3475.7 kPa): 957.5 ± 1.2 kg/m3 | mass density (303.16 K, 3490.8 kPa): 957.6 ± 1.2 kg/m3 | mass density (303.16 K, 3504 kPa): 957.5 ± 1.2 kg/m3 | mass density (303.16 K, 3519.7 kPa): 957.6 ± 1.2 kg/m3 | mass density (303.16 K, 3535.3 kPa): 957.7 ± 1.2 kg/m3 | mass density (303.16 K, 3548.8 kPa): 957.5 ± 1.2 kg/m3 | mass density (303.16 K, 3564.8 kPa): 957.5 ± 1.2 kg/m3 | mass density (303.16 K, 3593.9 kPa): 957.6 ± 1.2 kg/m3 | mass density (303.16 K, 3609.8 kPa): 957.6 ± 1.2 kg/m3 | mass density (303.16 K, 3626.1 kPa): 957.6 ± 1.2 kg/m3 | mass density (303.16 K, 3640.3 kPa): 957.7 ± 1.2 kg/m3 | mass density (303.16 K, 3656.9 kPa): 957.6 ± 1.2 kg/m3 | mass density (303.16 K, 3671 kPa): 957.7 ± 1.2 kg/m3 | mass density (303.16 K, 3688.1 kPa): 957.8 ± 1.2 kg/m3 | mass density (323.14 K, 32674 kPa): 960.8 ± 1.2 kg/m3 | mass density (323.14 K, 32807 kPa): 961 ± 1.2 kg/m3 | mass density (323.15 K, 104.51 kPa): 940.7 ± 1.1 kg/m3 | mass density (323.15 K, 104.52 kPa): 940.7 ± 1.1 kg/m3 and 940.6 ± 1.1 kg/m3 | mass density (323.15 K, 105.05 kPa): 940.7 ± 1.1 kg/m3 | mass density (323.15 K, 105.56 kPa): 940.7 ± 1.1 kg/m3 | mass density (323.15 K, 107.29 kPa): 940.7 ± 1.1 kg/m3 | mass density (323.15 K, 110.42 kPa): 940.7 ± 1.1 kg/m3 | mass density (323.15 K, 119.65 kPa): 940.6 ± 1.1 kg/m3 | mass density (323.15 K, 137.02 kPa): 940.6 ± 1.1 kg/m3 | mass density (323.15 K, 166.4 kPa): 940.7 ± 1.1 kg/m3 | mass density (323.15 K, 245.49 kPa): 940.7 ± 1.1 kg/m3 | mass density (323.15 K, 268.79 kPa): 940.8 ± 1.1 kg/m3 | mass density (323.15 K, 281.82 kPa): 940.8 ± 1.1 kg/m3 | mass density (323.15 K, 299.57 kPa): 941 ± 1.1 kg/m3 | mass density (323.15 K, 315.89 kPa): 940.9 ± 1.1 kg/m3 | mass density (323.15 K, 333.79 kPa): 940.8 ± 1.1 kg/m3 | mass density (323.15 K, 351.71 kPa): 940.9 ± 1.1 kg/m3 | mass density (323.15 K, 362.82 kPa): 940.9 ± 1.1 kg/m3 | mass density (323.15 K, 374.29 kPa): 940.8 ± 1.1 kg/m3 | mass density (323.15 K, 388.88 kPa): 941 ± 1.1 kg/m3 | mass density (323.15 K, 401.56 kPa): 941 ± 1.1 kg/m3 | mass density (323.15 K, 413.39 kPa): 941 ± 1.1 kg/m3 | mass density (323.15 K, 427.29 kPa): 940.9 ± 1.1 kg/m3 | mass density (323.15 K, 439.11 kPa): 940.9 ± 1.1 kg/m3 | mass density (323.15 K, 449.2 kPa): 941 ± 1.1 kg/m3 | mass density (323.15 K, 461 kPa): 940.9 ± 1.1 kg/m3 | mass density (323.15 K, 471.78 kPa): 941 ± 1.1 kg/m3 | mass density (323.15 K, 482.73 kPa): 940.9 ± 1.1 kg/m3 | mass density (323.15 K, 496.63 kPa): 940.9 ± 1.1 kg/m3 | mass density (323.15 K, 509.14 kPa): 940.9 ± 1.1 kg/m3 | mass density (323.15 K, 522.17 kPa): 941 ± 1.1 kg/m3 | mass density (323.15 K, 538.51 kPa): 941.1 ± 1.1 kg/m3 | mass density (323.15 K, 552.59 kPa): 941 ± 1.1 kg/m3 | mass density (323.15 K, 567.71 kPa): 940.9 ± 1.1 kg/m3 | mass density (323.15 K, 586.82 kPa): 941 ± 1.1 kg/m3 | mass density (323.15 K, 621.05 kPa): 941 ± 1.1 kg/m3 | mass density (323.15 K, 643.29 kPa): 941.1 ± 1.1 kg/m3 | mass density (323.15 K, 663.11 kPa): 941 ± 1.1 kg/m3 | mass density (323.15 K, 684.47 kPa): 941.1 ± 1.1 kg/m3 | mass density (323.15 K, 711.74 kPa): 941 ± 1.1 kg/m3 | mass density (323.15 K, 735.9 kPa): 941.1 ± 1.1 kg/m3 | mass density (323.15 K, 761.44 kPa): 941.1 ± 1.1 kg/m3 | mass density (323.15 K, 788.7 kPa): 941.2 ± 1.1 kg/m3 | mass density (323.15 K, 806.43 kPa): 941.1 ± 1.1 kg/m3 | mass density (323.15 K, 824.32 kPa): 941.2 ± 1.1 kg/m3 | mass density (323.15 K, 839.78 kPa): 941.2 ± 1.1 kg/m3 | mass density (323.15 K, 855.59 kPa): 941.1 ± 1.1 kg/m3 | mass density (323.15 K, 972.85 kPa): 941.4 ± 1.1 kg/m3 | mass density (323.15 K, 994.21 kPa): 941.3 ± 1.1 kg/m3 | mass density (323.15 K, 1021.5 kPa): 941.4 ± 1.1 kg/m3 | mass density (323.15 K, 1039.6 kPa): 941.3 ± 1.1 kg/m3 | mass density (323.15 K, 1067.7 kPa): 941.3 ± 1.1 kg/m3
